Patent US10675293B2, “Nucleoside agents for the reduction of the deleterious activity of extended nucleotide repeat containing genes” (The Board of Trustees of the Leland Stanford Junior …, priority 2015, dated 2020)
“Also recorded” adds a separate entry of the source.

What was measured:
[1] = biological target: T1, Supt4h-YC / Supt5h NGN-YN interaction (Homo sapiens, UniProt O00267+P63272); test: Bimolecular fluorescence complementation (BiFC) assay in 2-PN4 stable cells; type: cell-based; details: 24 hr with Doxycycline 4 μg/ml
T1 construct: NGN-YN is a genetic engineered protein in which Supt5h NGN domain is fused to YFP YN; expressed in transfected cells
Method: Human Supt4h and Supt5hNGN were fused in-frame with the YC and YN respectively. The YN and YC represent the N- and C-terminal domain of yellow fluorescent protein Venus. To prevent a change in protein folding caused by the conjugation of two polypeptides (Kerppola, “Design and implementation of bimolecular fluorescence complementation (BiFC) assays for the visualization of protein interactions in living cells,” Nature protocols (2006) 1:1278-1286), a protein linker containing additional 10 amino acid residues was included in the fusion protein. Also, extra amino acids GSHM were incorporated into the Supt5hNGN to increase its protein stability (Wenzel et al., “Crystal structure of the human transcription elongation factor DSIF hSpt4 subunit in complex with the hSpt5 dimerization interface,” The Biochemical journal (2010) 425:373-380). Supt4h, NGN, YC, and YN were amplified by PCR to generate DNA fragments containing the nucleotide sequence of protein linker. Supt4h and NGN PCR products then were mixed with the PCR product of YN or YC for secondary overlapping PCR. Finally, the resulting Supt4h-YC and NGN-YN DNA fragment was cloned into plasmid vector pcDNA3-HA and pFLAG-CMV-2 respectively.
(§1) Tet-on HeLa cells were transfected with linearized pTRE-HA-Supt4h-VC-Flag-NGN-VN plasmid construct using LipofectAMINE 2000 (Invitrogen). After transfection, cells were cultured initially in growth medium containing puromycin (1 μg/ml) and then selected for clones that show YFP fluorescence in the presence of tetracycline (4 μg/ml). The stable line having the strongest fluorescence signal was isolated and designated as 2-PN4. Likewise, 21-VS stable line was created using pTRE-HA-Venus.
(§2) Stable lines 2-PN4 and 21-VS were pre-cultured in 6-well plates, followed by an incubation of Doxycycline (4 μg/ml) together with various concentrations of chemical compounds for 24 hr. Cells were washed with PBS (Sigma) and monitored by microscope (20× magnification). Photos were taken using Nikon D500 camera with a setting of ISO 1600, shutter 1/200 for the light images, and shutter ½ for the fluorescence images. For quantification of fluorescence intensity, 5 photos with similar cell number were taken and the fluorescence signal was measured by Metamorph software individually. The average of overall fluorescence signal was determined and compared to the one observed in DMSO-treated control sample.
For the purpose of high-throughput drug screening, based on the BiFC method as mentioned above, we have created a stable cell line that co-expresses NGN-YN and Supt4h-YC under the control of a tet-on inducible promoter. […] If the complementation that is driven by NGN and Supt4h interaction is inhibited by a given test compound, the de novo YFP fluorescence signal is affected. […]

[2] = system: 21-VS cells (HA-Venus); test: Control fluorescence of 21-VS stable cells expressing intact Venus; type: cell-based; details: same experimental conditions as 2-PN4 cells
Method: The HA-Supt4h-YC and FLAG-NGN-YN fragments were amplified by PCR using plasmid constructs described above and sub-cloned individually into the pTRE-tight-BI vector (Clontech Laboratories), which contain a bi-directional CMV promoter under the control of tetracycline. The coding sequence of yellow fluorescence protein Venus with a HA-epitope in its N-terminus was PCR-amplified and cloned into the vector to generate pTRE-HA-Venus.
as §1, with “Likewise, 21-VS stable line was created using pTRE-HA-Venus.” left out
as §2, with “For quantification of fluorescence intensity, 5 photos with similar cell number were taken and the fluorescence signal was measured by Metamorph software individually.” left out, “sample. […]” for “sample.”

[3] = system: Supt4h-YC and NGN-YN protein expression; test: Western blot of Supt4h-YC and NGN-YN protein levels in 2-PN4 cells; type: cell-based, human
Method: As described (Liu et al., “Spt4 is selectively required for transcription of extended trinucleotide repeats,” Cell (2012) 148:690-701), equal amounts of protein were resolved by electrophoresis on 12% sodium dodecyl sulfate (SDS)-polyacrylamide gels, and transferred onto nitrocellulose membranes (nitrocellulose, Waterman 0.45 μM, NBA085C). After blocking with 5% low-fat milk in Tris-buffer saline containing 0.1% Tween-20, membranes were probed with primary antibodies, incubated with a horseradish peroxidase (HRP)-conjugated secondary antibody, and detected by ECL reagent (enhanced chemiluminescence, PerkinElmer).

[4] = biological target: T2, Supt4h-YC / NGN-YN complex (Homo sapiens, UniProt O00267+P63272); test: Co-immunoprecipitation of HA-Supt4h-YC with Flag-NGN-YN from 2-PN4 cells; type: cell-based; details: 20 μM, 36 hr, immunoprecipitation with anti-HA
T2 construct: NGN-YN is a genetic engineered protein in which Supt5h NGN domain is fused to YFP YN; expressed in transfected cells
Method: 2-PN4 cells, following a treatment of 6CR (Cf=20 μM) for 36 hr, were lysed with modified RIPA buffer (50 mM Tris-HCl [pH 7.5], 150 mM NaCl, 1% NP-40, 1% sodium deoxycholate), supplement with 1 mM Na3VO4, 1 mM DTT, 1 mM PMSF and protease inhibitor cocktail (Sigma). The collected protein lysates (1 mg) were diluted with modified RIPA buffer to a final volume of 0.5 ml and then incubated with anti-HA antibodies (1 μg) overnight. Following incubation with protein A agarose beads (Millipore) for another 6 hr, the beads were washed twice with modified RIPA buffer containing 20 μM 6CR. All of these performances were carried out at 4° C. For detection of proteins that coprecipitated with HA-Supt4h-YC, the immunocomplex was fractionated by SDS-PAGE, followed by Western blotting analysis with anti-HA and anti-FLAG antibodies.

[5] = system: mutant Htt gene; test: RT-PCR of Htt mRNA in Hdh Q111/Q111 striatal cells; type: cell-based, mouse; details: compared to mock control
Method: (§3) Tet-on HeLa cells (Clontech Laboratories), and stable line 2-PN4 and 21-VS were cultured in DMEM (Gibco) supplemented with 10% Tet-off fetal bovine serum (Gibco) at 37° C. with 5% CO2. Hdh Q7/Q7 (mouse), Hdh Q111/Q111 (mouse) were cultured in DMEM (HyClone) supplemented with 10% fetal bovine serum at 33° C. with 5% C02.
(§4) Total RNA was extracted from murine neuronal cells using TRI Reagent (Sigma). For cDNA conversion, 2 μg of total RNA was mixed with 5 μM random primer, 5 μM SnRNA U6 rt-PCR primer and 500 μM dNTPs, incubated at 65° C. for 5 min and then chilled on ice. After addition of First-Strand Buffer, DTT (Cf=10 mM) and 1 μl reverse transcriptase (Invitrogen), the reaction was carried out at 42° C. for 1 hr. Equal volumes of cDNA products were PCR amplified and resolved on 2.5% agarose gels to determine the abundance of Htt transcripts after normalization with U6 or 18S ribosomal RNA.

[6] = system: wild-type Htt gene; test: RT-PCR of Htt mRNA in Hdh Q7/Q7 striatal cells; type: cell-based, mouse; details: compared to mock control
Method: as §3, §4

[7] = system: mutant Huntingtin protein; test: Western blot of mutant HTT in Huntington's disease patient iPSC ND36999; type: cell-based, human; details: iPSC with 180 CAG repeats, 24 hr
Method: (§5) Cell samples were lysed in 30 mM Tris-HCl, pH 8.0, 5 mM NaCl, 0.1% Triton X-100 for 10 min on ice. The supernatants from spinning (14 k rpm for 10 min) were collected. The protein concentrations were determined by BCA assay (Pierce, ThermoFisher). Equal amounts of protein were loaded onto 4-12% gel. After electrophoresis, the gels were transferred to nitrocellulose membranes by wet transfer at 35V for 16 hr. The protein level of mutant HTT, total HTT and tubulin were determined by immunoblotting with anti-poly Glutamine (MAB1574 from Millipore), anti-Huntingtin protein (MAB2166 from Millipore) and anti-alpha tubulin (AJ1034a from ABGENT). Blots were imaged on a Li-Cor Odyssey infrared imager. The bands intensities were determined by Li-Cor Odyssey software.
(§6) To test whether the nucleoside 6-Azauridine (HD101) and (−)-6-Azauridine 2′,3′,5′-triacetate (HD106) can affect the expression of proteins with long polyQ domains, one iPSC (induced pluripotent stem cell) line ND36999, which was derived from a Huntington's disease patient who carries one allele of mutant htt gene with 180 CAG repeats, was purchased from the Coriell Institute. The iPSCs were plated into a 24-well plate coated with Matrigel. […] Cells were lysed and the protein concentrations were determined by BCA assay. […] The image (FIG. 10) was taken and the quantification was made by Li-Cor Odyssey imaging system.

[8] = system: total Huntingtin protein; test: Western blot of total HTT in Huntington's disease patient iPSC ND36999; type: cell-based, human; details: iPSC with 180 CAG repeats, 24 hr
Method: as §5, §6

Row | Compound | fluorescence intensity of 2-PN4 cells relative to control sample ([1]; 10 μM) | BiFC fluorescence signal of 2-PN4 cells ([1]; various concentrations) | fluorescence signal of 21-VS cells [2] | protein expression of Supt4h-YC and NGN-YN [3] | complex formation of Supt4h-YC and NGN-YN [4] | Htt mRNA transcribed from mutant allele [5] | Htt mRNA in cells with homozygous wild-type Htt allele [6] | mutant Huntingtin protein level [7] | total Huntingtin protein expression level [8]
1 | OC[C@H]1O[C@@H](n2cnc3c(Cl)ncnc32)C(O)C1O (stereo partly drawn) [6CR, 6-Chloropurine riboside] | decreased to half of control sample | reduces the fluorescence signal of 2-PN4 cells in a concentration-dependent manner; also recorded: inhibits Supt4h-YC and NGN-YN interaction | not altered | does not interfere with the protein expression | lower the complex formation | down-regulated; also recorded: reduces the expression of mutant Htt gene | not detectable |  | 
2 | CC(=O)OC[C@H]1O[C@@H](n2ncc(=O)[nH]c2=O)[C@H](OC(C)=O)[C@@H]1OC(C)=O [HD106, (−)—6-Azauridine 2′,3′,5′-Triacetate] |  |  |  |  |  |  |  | preferentially decrease mutant Huntingtin protein in a dose dependent manner; also recorded: reduced mutant huntingtin expression in a dose dependent manner | little effect
